Results taken from US20260001928A1 (CORTERIA PHARMACEUTICALS, priority 2022, published 2026).
*1 amine or outer side, *2 acyl side, *3 side chain or, on linkers, in order; H or OH if unused. Where a SMILES comes first, the peptide text is derived from it. Side-chain parts run from the residue outwards. [ ]: non-standard residue; d: D form. The star is where a group is joined. C18 diacid = O=C(O)CCCCCCCCCCCCCCCCC(=O)*; C16 diacid = O=C(O)CCCCCCCCCCCCCCC(=O)*; γGlu = O=C(O)[C@H](CCC(=O)[*:2])N[*:1]; αMeL = CC(C)C[C@](C)(N)C(=O)O; Pentanoyl = CCCCC(=O)*; AEEA = NCCOCCOCC(=O)O; Aib = CC(C)(N)C(=O)O; Propionyl = CCC(=O)*

How the values were obtained:
human CRF2a receptor = biological target: T1, human CRF2a receptor (Homo sapiens, UniProt Q13324); assay: Activity at human CRF2a receptor, cAMP functional assay in TeloHEAC cells; format: cell-based; conditions: TeloHEAC cells stably expressing human CRF2a receptor, relative to urocortin 2 (100 nM = 100%)
T1 construct: expressed in transfected cells; host or cells: TeloHEAC cells
T1 sequence (Q13324 1-411): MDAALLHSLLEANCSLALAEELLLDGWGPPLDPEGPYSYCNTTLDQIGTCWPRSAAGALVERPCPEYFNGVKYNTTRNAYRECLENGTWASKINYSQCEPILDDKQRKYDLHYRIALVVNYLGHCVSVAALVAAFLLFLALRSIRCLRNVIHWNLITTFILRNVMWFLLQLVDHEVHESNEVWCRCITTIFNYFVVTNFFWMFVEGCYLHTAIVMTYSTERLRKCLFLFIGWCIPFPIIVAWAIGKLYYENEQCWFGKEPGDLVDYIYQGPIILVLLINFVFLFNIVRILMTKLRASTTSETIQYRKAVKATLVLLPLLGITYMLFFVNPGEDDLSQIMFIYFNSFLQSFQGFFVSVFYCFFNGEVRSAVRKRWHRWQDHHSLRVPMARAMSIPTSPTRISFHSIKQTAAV
How it was run: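 TeloHEAC cells stably expressing human CRF2a (10000 cells/well) were treated with 16-point 1:2 compound dilutions in HBSS/20 mM HEPES with IBMX for 30 min at 37° C. cAMP was read by HTRF (665/620 nm ratio). EC50 was the concentration giving 50% activation, with 100 nM urocortin 2 set as 100%.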

CFR1R receptor = biological target: T2, CFR1R receptor (Homo sapiens, UniProt P34998); assay: Activity at anti-target CFR1R receptor, cAMP assay in CRF1R-overexpression CHO-K1 cells; format: cell-based; conditions: 100% = Sauvagine at 100 nM; for EC50: cAMP
T2 construct: host or cells: CHO-K1 (clone 2)
T2 sequence (P34998 24-415): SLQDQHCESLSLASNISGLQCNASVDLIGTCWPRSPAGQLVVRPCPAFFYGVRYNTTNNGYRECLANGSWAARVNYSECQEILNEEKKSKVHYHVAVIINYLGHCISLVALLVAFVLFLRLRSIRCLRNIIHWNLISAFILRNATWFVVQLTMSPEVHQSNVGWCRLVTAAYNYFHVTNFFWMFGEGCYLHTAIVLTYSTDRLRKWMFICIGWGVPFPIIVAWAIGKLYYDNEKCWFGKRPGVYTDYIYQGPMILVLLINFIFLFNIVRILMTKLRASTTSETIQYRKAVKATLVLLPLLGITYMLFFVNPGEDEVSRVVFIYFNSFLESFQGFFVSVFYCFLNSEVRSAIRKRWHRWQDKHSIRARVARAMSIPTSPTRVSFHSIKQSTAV
How it was run: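 The method mirrors that used with TeloHAEC cells. Here, thawed clone 2 cells seeded at 4000 cells/well are tested, and 100 nM Sauvagine sets the top of the activation scale.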

Which results are given for CCC(=O)N[C@H](C(=O)N[C@@H](CC(C)C)C(=O)N[C@@H](CO)C(=O)N[C@@H](CC(C)C)C(=O)N[C@@H](CC(=O)O)C(=O)N[C@H](C(=O)N1CCC[C@H]1C(=O)N[C@H](C(=O)N[C@@H](CCCCN)C(=O)N[C@@H](CC(C)C)C(=O)N[C@@H](CCCCNC(=O)COCCOCCNC(=O)COCCOCCNC(=O)CC[C@H](NC(=O)CCCCCCCCCCCCCCCCC(=O)O)C(=O)O)C(=O)N[C@@H](CCCCN)C(=O)N[C@H](C(=O)N[C@@H](CC(C)C)C(=O)N[C@@H](CC(C)C)C(=O)N[C@@H](CCC(=O)O)C(=O)N[C@@H](CCC(N)=O)C(=O)N[C@@H](CCC(=O)O)C(=O)N[C@@H](CCCCN)C(=O)N[C@@H](CCC(N)=O)C(=O)N[C@@H](CCCCN)C(=O)N[C@@H](CCCCN)C(=O)N[C@@H](CCC(N)=O)C(=O)N[C@@H](CCCNC(=N)N)C(=O)N[C@@H](CCC(=O)O)C(=O)N[C@@H](CCC(N)=O)C(=O)N[C@@H](C)C(=O)N[C@@H](CCC(=O)O)C(=O)N[C@H](C(=O)N[C@@H](CC(N)=O)C(=O)N[C@@H](CCCCN)C(=O)N[C@@H](CCC(N)=O)C(=O)N[C@H](C(=O)N[C@@H](CC(C)C)C(=O)N[C@@H](C)C(=O)N[C@@H](CCC(N)=O)C(=O)N[C@H](C(N)=O)C(C)C)[C@@H](C)CC)[C@@H](C)O)[C@@H](C)CC)[C@@H](C)CC)C(C)C)C(C)C [compound 94] (Propionyl-VLSLDVPIKLK([AEEA-AEEA-γGlu-C18 diacid])KILLEQEKQKKQREQAETNKQILAQV-NH2)?
EC50 (human CRF2a receptor): 1.48 nM; Emax (% I) (CFR1R receptor): 0 % I; EC50 (CFR1R receptor): > 250 nM

CC[C@H](C)[C@H](N)C(=O)N[C@H](C(=O)N[C@@H](CC(C)C)C(=O)N[C@@H](CO)C(=O)N[C@@H](CC(C)C)C(=O)N[C@@H](CC(=O)O)C(=O)N[C@H](C(=O)N1CCC[C@H]1C(=O)N[C@H](C(=O)N[C@@H](CCCCN)C(=O)N[C@@](C)(CC(C)C)C(=O)N[C@@H](CCCCNC(=O)CC[C@H](NC(=O)CCCCCCCCCCCCCCC(=O)O)C(=O)O)C(=O)N[C@@H](CCCCN)C(=O)N[C@H](C(=O)N[C@@H](CC(C)C)C(=O)N[C@@H](CC(C)C)C(=O)N[C@@H](CCC(=O)O)C(=O)N[C@@H](CCC(N)=O)C(=O)N[C@@H](CCC(=O)O)C(=O)N[C@@H](CCCCN)C(=O)N[C@@H](CCC(N)=O)C(=O)N[C@@H](CCCCN)C(=O)N[C@@H](CCCCN)C(=O)N[C@@H](CCC(N)=O)C(=O)N[C@@H](CCCNC(=N)N)C(=O)N[C@@H](CCC(=O)O)C(=O)N[C@@H](CCC(N)=O)C(=O)N[C@@H](C)C(=O)N[C@@H](CCC(=O)O)C(=O)N[C@H](C(=O)N[C@@H](CC(N)=O)C(=O)NC(C)(C)C(=O)N[C@@H](CCC(N)=O)C(=O)N[C@H](C(=O)N[C@@H](CC(C)C)C(=O)N[C@@H](C)C(=O)N[C@@H](CCC(N)=O)C(=O)N[C@H](C(N)=O)C(C)C)[C@@H](C)CC)[C@@H](C)O)[C@@H](C)CC)[C@@H](C)CC)C(C)C)C(C)C [compound 38] (H-IVLSLDVPIK[αMeL]K([γGlu-C16 diacid])KILLEQEKQKKQREQAETN[Aib]QILAQV-NH2) was tested. Which EC50 (human CRF2a receptor) did it give?
The EC50 was 0.49 nM.

And the “Emax (% I)” value (CFR1R receptor)?
The value was 6 % I.

What about the EC50 (CFR1R receptor) of the same compound?
The EC50 was > 250 nM.

Which results are given for CCCCC(=O)N[C@H](C(=O)N[C@@H](CC(C)C)C(=O)N[C@@H](CO)C(=O)N[C@@H](CC(C)C)C(=O)N[C@@H](CC(=O)O)C(=O)N[C@@H](C(=O)N1CCC[C@H]1C(=O)N[C@H](C(=O)NCC(=O)N[C@@H](CC(C)C)C(=O)N[C@@H](CCCCNC(=O)CC[C@H](NC(=O)CCCCCCCCCCCCCCCCC(=O)O)C(=O)O)C(=O)N[C@@H](CCCCN)C(=O)N[C@H](C(=O)N[C@@H](CC(C)C)C(=O)N[C@@H](CC(C)C)C(=O)N[C@@H](CCC(=O)O)C(=O)N[C@@H](CCC(N)=O)C(=O)N[C@@H](CCC(=O)O)C(=O)N[C@@H](CCCCN)C(=O)N[C@@H](CCC(N)=O)C(=O)N[C@@H](CCCCN)C(=O)N[C@@H](CCCCN)C(=O)N[C@@H](CCC(N)=O)C(=O)N[C@@H](CCCNC(=N)N)C(=O)N[C@@H](CCC(=O)O)C(=O)N[C@@H](CCC(N)=O)C(=O)N[C@@H](C)C(=O)N[C@@H](CCC(=O)O)C(=O)N[C@H](C(=O)N[C@@H](CC(N)=O)C(=O)NC(C)(C)C(=O)N[C@@H](CCC(N)=O)C(=O)N[C@H](C(=O)N[C@@H](CC(C)C)C(=O)N[C@@H](C)C(=O)N[C@@H](CCC(N)=O)C(=O)N[C@H](C(N)=O)C(C)C)[C@@H](C)CC)[C@@H](C)O)[C@@H](C)CC)[C@@H](C)CC)C(C)C)C(C)C [compound 195] (Pentanoyl-VLSLD[dV]PIGLK([γGlu-C18 diacid])KILLEQEKQKKQREQAETN[Aib]QILAQV-NH2)?
EC50 (human CRF2a receptor): 0.21 nM; Emax (% I) (CFR1R receptor): 42 % I

Which EC50 (human CRF2a receptor) does the source give for CC[C@H](C)[C@H](NC(C)=O)C(=O)N[C@H](C(=O)N[C@@H](CC(C)C)C(=O)N[C@@H](CO)C(=O)N[C@@H](CC(C)C)C(=O)N[C@@H](CC(=O)O)C(=O)N[C@@H](C(=O)N1CCC[C@H]1C(=O)N[C@H](C(=O)N[C@@H](CCCCN)C(=O)N[C@@H](CC(C)C)C(=O)N[C@@H](CCCCNC(=O)CC[C@H](NC(=O)CCCCCCCCCCCCCCC(=O)O)C(=O)O)C(=O)N[C@@H](CCCCN)C(=O)N[C@H](C(=O)N[C@@H](CC(C)C)C(=O)N[C@@H](CC(C)C)C(=O)N[C@@H](CCC(=O)O)C(=O)N[C@@H](CCC(N)=O)C(=O)N[C@@H](CCC(=O)O)C(=O)N[C@@H](CCCCN)C(=O)N[C@@H](CCC(N)=O)C(=O)N[C@@H](CCCCN)C(=O)N[C@@H](CCCCN)C(=O)N[C@@H](CCC(N)=O)C(=O)N[C@@H](CCCNC(=N)N)C(=O)N[C@@H](CCC(=O)O)C(=O)N[C@@H](CCC(N)=O)C(=O)N[C@@H](C)C(=O)N[C@@H](CCC(=O)O)C(=O)N[C@H](C(=O)N[C@@H](CC(N)=O)C(=O)N[C@H](C(=O)N[C@@H](CCC(N)=O)C(=O)N[C@H](C(=O)N[C@@H](CC(C)C)C(=O)N[C@@H](C)C(=O)N[C@@H](CCC(N)=O)C(=O)N[C@H](C(N)=O)C(C)C)[C@@H](C)CC)C(C)C)[C@@H](C)O)[C@@H](C)CC)[C@@H](C)CC)C(C)C)C(C)C [compound 48] (Ac-IVLSLD[dV]PIKLK([γGlu-C16 diacid])KILLEQEKQKKQREQAETNVQILAQV-NH2) here?
Its EC50 is 1.35 nM.

And the “Emax (% I)” value (CFR1R receptor)?
The value was 4 % I.

And the EC50 (CFR1R receptor)?
Its EC50 is > 250 nM.

Which results are given for CC[C@H](C)[C@H](NC(C)=O)C(=O)N[C@H](C(=O)N[C@@H](CC(C)C)C(=O)N[C@@H](CO)C(=O)N[C@@H](CC(C)C)C(=O)N[C@@H](CC(=O)O)C(=O)N[C@H](C(=O)N1CCC[C@H]1C(=O)N[C@H](C(=O)N[C@@H](CCCCN)C(=O)N[C@@](C)(CC(C)C)C(=O)N[C@@H](CCCCNC(=O)CC[C@H](NC(=O)CCCCCCCCCCCCCCC(=O)O)C(=O)O)C(=O)N[C@@H](CCC(N)=O)C(=O)NC(C)(C)C(=O)N[C@@H](CC(C)C)C(=O)N[C@@H](CC(C)C)C(=O)N[C@@H](CCCCN)C(=O)N[C@@H](CCC(N)=O)C(=O)N[C@@H](CCC(=O)O)C(=O)N[C@@H](CCCNC(=N)N)C(=O)N[C@@H](CCC(N)=O)C(=O)N[C@@H](CCCCN)C(=O)N[C@@H](CCCCN)C(=O)N[C@@H](CCC(N)=O)C(=O)N[C@@H](CCCNC(=N)N)C(=O)N[C@@H](CCC(=O)O)C(=O)N[C@@H](CCC(N)=O)C(=O)N[C@@H](C)C(=O)N[C@@H](CCC(=O)O)C(=O)N[C@@H](CCCCN)C(=O)N[C@@H](CC(N)=O)C(=O)NC(C)(C)C(=O)N[C@@H](CCC(N)=O)C(=O)N[C@H](C(=O)N[C@@H](CC(C)C)C(=O)N[C@@H](CCC(=O)O)C(=O)N[C@@H](CCC(N)=O)C(=O)N[C@H](C(N)=O)C(C)C)[C@@H](C)CC)[C@@H](C)CC)C(C)C)C(C)C [compound 20] (Ac-IVLSLDVPIK[αMeL]K([γGlu-C16 diacid])Q[Aib]LLKQERQKKQREQAEKN[Aib]QILEQV-NH2)?
EC50 (human CRF2a receptor): 1.09 nM; Emax (% I) (CFR1R receptor): 3 % I; EC50 (CFR1R receptor): > 250 nM
